Assay results published in ChEMBL document CHEMBL1156522, “Lateral compartmentalization of T cell receptor versus CD45 by galectin-N-glycan binding and microfilaments coordinate basal and activation signaling” (J Biol Chem, 2007).
Activity calls are given as the source filed them. The rule behind the calls is not given here.

How the values were obtained:
Homo sapiens [1] = organism: Homo sapiens; experiment: Enhancement of Lck localization within GM1-enriched microdomain in CD45 deficient human J45.01 cells by Western blot; type: functional
J-RT3-T3-5 [2] = experiment: Enhancement of Lck localization within GM1-enriched microdomain in TCRbeta deficient human J.RT3-T3.5 cells by Western blot; type: functional
Jurkat [3] = experiment: Enhancement of Lck localization within GM1-enriched microdomain in CD4 deficient human Jurkat D1. 1 cells by Western blot; type: functional, cell-based
[4] = molecular target: T1, Linker for activation of T-cells family member 1 (Homo sapiens) (UniProt O43561); experiment: Increase in LAT phosphorylation in anti-CD3-coated microbeads-stimulated CD45 deficient human J45.01 cells after 3 days
T1 sequence (whole entry): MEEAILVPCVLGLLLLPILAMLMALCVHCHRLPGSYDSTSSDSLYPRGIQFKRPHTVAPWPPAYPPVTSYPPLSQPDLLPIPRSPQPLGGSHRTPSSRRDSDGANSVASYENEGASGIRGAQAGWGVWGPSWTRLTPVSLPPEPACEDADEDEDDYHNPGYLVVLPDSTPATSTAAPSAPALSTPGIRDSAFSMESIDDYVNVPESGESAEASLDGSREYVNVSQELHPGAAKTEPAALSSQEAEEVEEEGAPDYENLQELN

T-cell [5] = experiment: Reduction of CD45 co-localization with GM1-enriched microdomain in resting C57BL/6 mouse T cells pretreated for 20 mins; type: functional, cell-based
Jurkat [6] = experiment: Induction of Nck protein binding to TCR complex in human Jurkat T cells by immunoprecipitation; type: cell-based
[7] = molecular target: T1, Linker for activation of T-cells family member 1 (Homo sapiens); experiment: Induction of LAT phosphorylation in human Jurkat T cells at 5 uM after 3 days by Western blot analysis; type: cell-based
T-cell [8] = experiment: Increase T cell receptor co-localization to GM1-enriched microdomain in C57BL/6 mouse T cells pretreated for 20 mins; type: functional, cell-based
T-cell [9] = experiment: Increase CD4 co-localization to GM1-enriched microdomain in C57BL/6 mouse T cells pretreated for 20 mins; type: functional, cell-based
Jurkat [10] = experiment: Increase in CD45 galectin lattice partition to GM1-enriched microdomain in human Jurkat T cells by densitometry; type: functional, cell-based
J-RT3-T3-5 [11] = experiment: Increase in CD45 galectin lattice partition to GM1-enriched microdomain TCRbeta deficient human J.RT3-T3.5 cells by densitometry; type: functional
Jurkat [12] = experiment: Increase in CD45 galectin lattice partition to GM1-enriched microdomain in CD4 deficient human Jurkat D1. 1 cells by densitometry; type: functional, cell-based
Homo sapiens [13] = organism: Homo sapiens; experiment: Increase in CD45 galectin lattice partition to GM1-enriched microdomain in CD45 deficient human J45.01 cells by densitometry; type: functional
Jurkat [14] = experiment: Increase in TCR-CD3 galectin lattice partition to GM1-enriched microdomain in human Jurkat T cells by densitometry; type: functional, cell-based
J-RT3-T3-5 [15] = experiment: Increase in TCR-CD3 galectin lattice partition to GM1-enriched microdomain TCRbeta deficient human J.RT3-T3.5 cells by densitometry; type: functional
Jurkat [16] = experiment: Increase in TCR-CD3 galectin lattice partition to GM1-enriched microdomain in CD4 deficient human Jurkat D1. 1 cells by densitometry; type: functional, cell-based
Homo sapiens [17] = organism: Homo sapiens; experiment: Increase in TCR-CD3 galectin lattice partition to GM1-enriched microdomain in CD45 deficient human J45.01 cells by densitometry; type: functional
Jurkat [18] = experiment: Increase in CD4 galectin lattice partition to GM1-enriched microdomain in human Jurkat T cells by densitometry; type: functional, cell-based
J-RT3-T3-5 [19] = experiment: Increase in CD4 galectin lattice partition to GM1-enriched microdomain TCRbeta deficient human J.RT3-T3.5 cells by densitometry; type: functional
Homo sapiens [20] = organism: Homo sapiens; experiment: Increase in CD4 galectin lattice partition to GM1-enriched microdomain in CD45 deficient human J45.01 cells by densitometry; type: functional
Jurkat [21] = experiment: Enhancement of Lck localization within GM1-enriched microdomain in human Jurkat T cells by Western blot; type: functional, cell-based
[22] = molecular target: T2, Tyrosine-protein kinase ZAP-70 (Homo sapiens) (UniProt P43403); experiment: Increase in Zap70 phosphorylation in anti-CD3-coated microbeads-stimulated CD45 deficient human J45.01 cells after 3 days
T2 sequence (whole entry): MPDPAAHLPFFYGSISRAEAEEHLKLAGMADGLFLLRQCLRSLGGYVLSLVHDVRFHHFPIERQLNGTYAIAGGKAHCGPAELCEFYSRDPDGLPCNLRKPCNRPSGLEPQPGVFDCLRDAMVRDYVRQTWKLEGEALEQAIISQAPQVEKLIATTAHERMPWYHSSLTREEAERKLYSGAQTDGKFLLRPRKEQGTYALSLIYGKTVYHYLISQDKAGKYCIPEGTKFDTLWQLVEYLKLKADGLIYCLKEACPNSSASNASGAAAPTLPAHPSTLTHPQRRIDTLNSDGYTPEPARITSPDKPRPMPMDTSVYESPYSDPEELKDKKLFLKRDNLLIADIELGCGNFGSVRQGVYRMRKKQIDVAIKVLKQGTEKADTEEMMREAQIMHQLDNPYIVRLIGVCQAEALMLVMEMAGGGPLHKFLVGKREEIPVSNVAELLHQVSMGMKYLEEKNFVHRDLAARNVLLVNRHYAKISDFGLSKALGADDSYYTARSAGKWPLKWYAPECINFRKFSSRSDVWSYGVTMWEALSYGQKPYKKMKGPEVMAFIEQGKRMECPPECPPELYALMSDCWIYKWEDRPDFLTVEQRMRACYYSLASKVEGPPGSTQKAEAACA

Jurkat [23] = experiment: Increase in ZAP70 expression in GM1-enriched microdomain of human Jurkat T cells by Western blot; type: functional, cell-based
Homo sapiens [24] = organism: Homo sapiens; experiment: Increase in ZAP70 expression in GM1-enriched microdomain of Lck defient human JCaM1.6 cells by Western blot; type: functional
Jurkat [25] = experiment: Reduction of CD4 surface expression in Lck deficient human Jurkat T cells by flow cytometry; type: functional, cell-based
[26] = molecular target: T3, Tyrosine-protein kinase Lck (Homo sapiens, UniProt P06239); experiment: Induction of Lck Tyr394 phosphorylation in CD4 deficient human Jurkat T D1.1 cells at 5 uM after 3 days by Western blot analysis; type: cell-based
Target sequence in this assay (P06239 2-509 limits assumed): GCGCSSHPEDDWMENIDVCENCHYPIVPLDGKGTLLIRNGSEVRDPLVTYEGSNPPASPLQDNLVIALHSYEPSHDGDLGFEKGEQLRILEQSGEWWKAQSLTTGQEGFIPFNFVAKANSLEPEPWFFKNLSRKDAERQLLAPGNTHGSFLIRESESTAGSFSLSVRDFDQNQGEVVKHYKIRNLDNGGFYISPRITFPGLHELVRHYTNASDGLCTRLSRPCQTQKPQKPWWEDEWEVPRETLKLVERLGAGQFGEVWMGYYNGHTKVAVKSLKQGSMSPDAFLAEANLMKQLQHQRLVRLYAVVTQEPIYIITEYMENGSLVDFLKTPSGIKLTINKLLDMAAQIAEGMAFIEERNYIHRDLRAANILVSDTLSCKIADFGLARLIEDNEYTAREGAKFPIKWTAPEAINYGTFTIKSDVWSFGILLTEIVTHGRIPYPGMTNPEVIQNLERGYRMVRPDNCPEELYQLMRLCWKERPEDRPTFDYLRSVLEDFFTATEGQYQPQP

[27] = molecular target: T3, Tyrosine-protein kinase Lck; experiment: Induction of Lck Tyr394 phosphorylation in TCRbeta deficient human Jurkat T J.RT3-T3.5 cells at 5 uM after 3 days by Western blot analysis; type: cell-based
Target sequence in this assay (P06239 2-509 limits assumed): as above

[28] = molecular target: T3, Tyrosine-protein kinase Lck; experiment: Induction of Lck Tyr394 phosphorylation in CD45 deficient human Jurkat T DJ45.01 cells at 5 uM after 3 days by Western blot analysis; type: cell-based
Target sequence in this assay (P06239 2-509 limits assumed): as above

[29] = molecular target: T3, Tyrosine-protein kinase Lck; experiment: Induction of Lck Tyr394 phosphorylation in human Jurkat T cells at 5 uM after 3 days by Western blot analysis; type: cell-based
Target sequence in this assay (P06239 2-509 limits assumed): as above

[30] = molecular target: T2, Tyrosine-protein kinase ZAP-70 (Homo sapiens); experiment: Induction of ZAP70 phosphorylation in human Jurkat T cells at 5 uM after 3 days by Western blot analysis; type: cell-based
[31] = molecular target: T3, Tyrosine-protein kinase Lck; experiment: Inhibition of Lck phosphorylation
Target sequence in this assay (P06239 whole entry): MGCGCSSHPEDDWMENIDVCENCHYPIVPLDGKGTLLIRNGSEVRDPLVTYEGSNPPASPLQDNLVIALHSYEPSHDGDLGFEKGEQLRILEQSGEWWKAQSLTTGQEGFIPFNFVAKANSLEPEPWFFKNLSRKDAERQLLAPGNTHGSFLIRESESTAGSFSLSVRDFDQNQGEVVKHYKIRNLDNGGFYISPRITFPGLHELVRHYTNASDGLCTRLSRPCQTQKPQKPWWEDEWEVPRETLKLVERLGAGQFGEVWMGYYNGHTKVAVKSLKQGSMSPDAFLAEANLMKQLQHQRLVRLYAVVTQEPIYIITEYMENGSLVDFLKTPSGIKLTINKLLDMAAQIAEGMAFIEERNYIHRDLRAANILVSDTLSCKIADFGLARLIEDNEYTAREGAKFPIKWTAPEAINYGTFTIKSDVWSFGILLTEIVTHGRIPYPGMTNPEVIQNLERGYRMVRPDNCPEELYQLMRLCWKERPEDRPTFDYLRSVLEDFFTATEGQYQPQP

[32] = molecular target: T4, Tyrosine-protein phosphatase non-receptor type 1 (Homo sapiens, UniProt P18031); experiment: Inhibition of protein tyrosine phosphatase N1 phosphorylation
T4 sequence (P18031 whole entry): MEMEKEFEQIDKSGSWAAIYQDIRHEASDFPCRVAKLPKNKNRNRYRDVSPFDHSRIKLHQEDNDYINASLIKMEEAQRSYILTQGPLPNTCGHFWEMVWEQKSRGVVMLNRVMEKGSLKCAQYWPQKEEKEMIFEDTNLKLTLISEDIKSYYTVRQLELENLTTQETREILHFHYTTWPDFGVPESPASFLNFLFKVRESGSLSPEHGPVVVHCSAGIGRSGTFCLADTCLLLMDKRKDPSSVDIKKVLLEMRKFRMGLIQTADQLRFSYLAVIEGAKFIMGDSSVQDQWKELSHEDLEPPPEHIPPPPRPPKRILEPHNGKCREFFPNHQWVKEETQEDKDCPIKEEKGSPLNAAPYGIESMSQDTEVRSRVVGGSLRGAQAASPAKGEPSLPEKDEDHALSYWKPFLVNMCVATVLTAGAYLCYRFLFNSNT

[33] = molecular target: Tyrosine-protein phosphatase non-receptor type 13 (Homo sapiens, UniProt Q12923); experiment: Inhibition of protein tyrosine phosphatase N13 phosphorylation
[34] = molecular target: Proto-oncogene tyrosine-protein kinase LCK (Mus musculus) (UniProt P06240); experiment: Reversal of reduction of Lck Tyr394 phosphorylation in resting C57BL/6 mouse T cells at 20 uM by Western blot; type: cell-based; settings: T-cell
[35] = molecular target: Proto-oncogene tyrosine-protein kinase LCK (Mus musculus) (UniProt P06240); experiment: Reduction of Lck Tyr394 phosphorylation in resting C57BL/6 mouse T cells at 20 uM by Western blot; type: cell-based; settings: T-cell
Jurkat [36] = experiment: Reduction of CD45 co-localization with GM1-enriched microdomain in human Jurkat T cells after 3 days; type: functional, cell-based
T-cell [37] = experiment: Effect on TCR distribution within GM1-enriched microdomain in C57BL/6 mouse Mgat5 expressing T cells pretreated at 20 uM; type: functional, cell-based
T-cell [38] = experiment: Effect on CD4 distribution within GM1-enriched microdomain in C57BL/6 mouse Mgat5 expressing T cells pretreated at 20 uM; type: functional, cell-based
T-cell [39] = experiment: Effect on CD45 distribution within GM1-enriched microdomain in C57BL/6 mouse Mgat5 expressing T cells pretreated at 20 uM; type: functional, cell-based

Proto-oncogene tyrosine-protein kinase LCK (Mus musculus), sequence (P06240 2-509 limits assumed): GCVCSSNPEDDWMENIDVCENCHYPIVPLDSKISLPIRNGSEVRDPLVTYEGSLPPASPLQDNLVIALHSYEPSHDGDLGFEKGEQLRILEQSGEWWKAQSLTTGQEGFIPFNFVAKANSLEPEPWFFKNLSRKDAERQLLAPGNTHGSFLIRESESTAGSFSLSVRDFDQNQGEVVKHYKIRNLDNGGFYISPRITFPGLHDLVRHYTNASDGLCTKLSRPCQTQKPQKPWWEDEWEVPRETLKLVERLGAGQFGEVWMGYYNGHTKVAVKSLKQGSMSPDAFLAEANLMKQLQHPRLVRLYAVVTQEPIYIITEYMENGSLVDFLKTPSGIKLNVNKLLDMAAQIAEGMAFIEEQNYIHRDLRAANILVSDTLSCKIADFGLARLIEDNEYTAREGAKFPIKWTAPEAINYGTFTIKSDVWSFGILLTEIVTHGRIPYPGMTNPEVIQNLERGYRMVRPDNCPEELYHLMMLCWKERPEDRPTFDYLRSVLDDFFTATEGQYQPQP
Tyrosine-protein phosphatase non-receptor type 13, sequence (Q12923 whole entry): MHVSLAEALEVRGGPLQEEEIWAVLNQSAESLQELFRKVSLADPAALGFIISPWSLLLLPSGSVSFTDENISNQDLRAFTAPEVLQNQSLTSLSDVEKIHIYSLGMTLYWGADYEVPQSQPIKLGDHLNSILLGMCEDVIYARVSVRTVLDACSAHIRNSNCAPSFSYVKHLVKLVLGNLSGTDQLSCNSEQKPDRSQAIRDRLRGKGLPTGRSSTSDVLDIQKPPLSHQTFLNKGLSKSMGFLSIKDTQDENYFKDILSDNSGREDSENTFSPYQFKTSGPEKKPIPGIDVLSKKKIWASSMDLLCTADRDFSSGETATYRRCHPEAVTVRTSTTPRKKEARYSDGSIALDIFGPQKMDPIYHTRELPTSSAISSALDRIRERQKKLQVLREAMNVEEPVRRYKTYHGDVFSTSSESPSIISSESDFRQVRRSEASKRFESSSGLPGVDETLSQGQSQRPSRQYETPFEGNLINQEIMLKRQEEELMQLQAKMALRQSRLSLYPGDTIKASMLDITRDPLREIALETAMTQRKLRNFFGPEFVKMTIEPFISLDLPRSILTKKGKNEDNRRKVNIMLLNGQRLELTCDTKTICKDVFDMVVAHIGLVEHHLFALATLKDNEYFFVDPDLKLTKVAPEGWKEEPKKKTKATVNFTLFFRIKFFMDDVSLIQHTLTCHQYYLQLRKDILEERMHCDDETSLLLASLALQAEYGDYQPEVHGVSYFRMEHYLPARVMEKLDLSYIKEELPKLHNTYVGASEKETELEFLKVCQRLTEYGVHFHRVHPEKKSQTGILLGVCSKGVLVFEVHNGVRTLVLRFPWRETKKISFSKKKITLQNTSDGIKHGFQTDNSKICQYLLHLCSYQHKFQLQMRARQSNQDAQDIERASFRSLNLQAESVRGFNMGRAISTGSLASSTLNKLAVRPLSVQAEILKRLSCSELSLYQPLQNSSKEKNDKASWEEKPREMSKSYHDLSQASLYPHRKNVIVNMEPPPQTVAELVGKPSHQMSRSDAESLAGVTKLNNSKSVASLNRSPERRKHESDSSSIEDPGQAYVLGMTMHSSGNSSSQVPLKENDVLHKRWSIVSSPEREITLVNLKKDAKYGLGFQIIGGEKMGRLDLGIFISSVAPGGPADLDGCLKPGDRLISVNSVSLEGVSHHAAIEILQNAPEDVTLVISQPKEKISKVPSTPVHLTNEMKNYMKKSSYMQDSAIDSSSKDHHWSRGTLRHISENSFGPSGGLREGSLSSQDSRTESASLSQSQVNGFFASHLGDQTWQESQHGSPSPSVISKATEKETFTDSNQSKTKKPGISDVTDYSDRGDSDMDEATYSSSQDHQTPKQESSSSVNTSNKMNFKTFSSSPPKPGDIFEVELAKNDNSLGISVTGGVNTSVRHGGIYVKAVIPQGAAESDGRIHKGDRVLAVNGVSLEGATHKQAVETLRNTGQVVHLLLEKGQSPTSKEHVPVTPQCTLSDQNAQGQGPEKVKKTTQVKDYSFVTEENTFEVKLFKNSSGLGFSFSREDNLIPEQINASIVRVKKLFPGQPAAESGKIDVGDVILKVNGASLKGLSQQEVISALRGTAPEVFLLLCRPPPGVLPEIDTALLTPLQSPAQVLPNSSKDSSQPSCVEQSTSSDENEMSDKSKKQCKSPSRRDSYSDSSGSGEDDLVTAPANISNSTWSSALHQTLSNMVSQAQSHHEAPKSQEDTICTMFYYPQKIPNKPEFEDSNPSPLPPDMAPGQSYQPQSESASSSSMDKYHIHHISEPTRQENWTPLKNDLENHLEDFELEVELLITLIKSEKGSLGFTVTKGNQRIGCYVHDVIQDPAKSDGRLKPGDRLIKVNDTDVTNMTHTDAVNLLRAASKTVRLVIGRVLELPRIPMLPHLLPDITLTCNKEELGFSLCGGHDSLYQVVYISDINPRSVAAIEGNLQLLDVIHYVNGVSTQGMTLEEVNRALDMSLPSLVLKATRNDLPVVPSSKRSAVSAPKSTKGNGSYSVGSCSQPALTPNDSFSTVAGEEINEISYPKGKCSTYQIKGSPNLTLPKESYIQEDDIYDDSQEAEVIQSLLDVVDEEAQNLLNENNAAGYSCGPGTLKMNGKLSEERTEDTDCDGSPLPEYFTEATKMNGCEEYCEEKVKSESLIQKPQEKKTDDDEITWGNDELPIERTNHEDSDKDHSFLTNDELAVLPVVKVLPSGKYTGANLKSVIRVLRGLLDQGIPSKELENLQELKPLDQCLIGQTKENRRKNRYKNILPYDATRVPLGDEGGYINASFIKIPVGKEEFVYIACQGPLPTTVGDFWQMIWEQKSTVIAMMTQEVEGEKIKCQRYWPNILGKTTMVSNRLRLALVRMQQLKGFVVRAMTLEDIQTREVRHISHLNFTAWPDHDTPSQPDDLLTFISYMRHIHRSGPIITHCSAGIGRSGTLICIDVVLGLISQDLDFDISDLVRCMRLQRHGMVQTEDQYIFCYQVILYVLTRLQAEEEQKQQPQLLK

## O[C@H]1[C@H]2[C@H](O)CCCN2C[C@H]1O
Homo sapiens [1]
  Activity: Active
J-RT3-T3-5 [2]
  Activity: inactive
Jurkat [3]
  Activity: Active
[4]
  Activity: inactive
T-cell [5]
  Activity: Active
Jurkat [6]
  Activity: Active
[7]
  Activity: Active
T-cell [8]
  Activity: Active
T-cell [9]
  Activity: Active
Jurkat [10]
  Activity: Active
J-RT3-T3-5 [11]
  Activity: Active
Jurkat [12]
  Activity: Active
Homo sapiens [13]
  Activity: Active
Jurkat [14]
  Activity: Active
J-RT3-T3-5 [15]
  Activity: Active
Jurkat [16]
  Activity: Active
Homo sapiens [17]
  Activity: Active
Jurkat [18]
  Activity: Active
J-RT3-T3-5 [19]
  Activity: Active
Homo sapiens [20]
  Activity: inactive
Jurkat [21]
  Activity: Active
[22]
  Activity: inactive
Jurkat [23]
  Activity: Active
Homo sapiens [24]
  Activity: inactive
Jurkat [25]
  Activity: Active
[26]
  Activity: inactive
[27]
  Activity: inactive
[28]
  Activity: inactive
[29]
  Activity: Active
[30]
  Activity: Active

## CC(C)(C)C(=O)Nc1ccc2c(c1)C(=O)C(=O)c1ccccc1-2
[31]
  IC50: 3.8 µM
[32]
  IC50: > 30 µM
[33]
  IC50: > 30 µM

## C/C1=C/C(=O)O[C@@H]2C[C@@H](CC[C@H](C)/C=C\C=C\CC1)O[C@@](O)([C@@H]1CSC(=O)N1)C2
[34]
  Activity: Active
[35]
  Activity: Active

## LACTOSE, ANHYDROUS
Jurkat [6]
  Activity: Active
Jurkat [36]
  Activity: Active

## CC(C)(C)n1nc(-c2ccc(Cl)cc2)c2c(N)ncnc21
T-cell [37]
  Activity: inactive
T-cell [38]
  Activity: inactive
T-cell [39]
  Activity: inactive
